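Dose response: 5 concentrations. Exposure: 48 h. Format: 96-well plates. Endpoint: linear interpolation; highest concentration if not reached. At the TGI there is no net growth.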 A value given as a limit tells only on which side of the number the result lay.

Holding throughout (assay): growth of human tumour cells (NCI), 48 h
The subject of assay [1] is SN12C renal.
Assay [2] deals with UO-31 renal.
Assay [3] relates to M14 melanoma.
Assay [4] relates to IGROV1 ovarian.
Assay [5] concerns SNB-19 CNS.
Assay [6] concerns TK-10 renal.
In assay [7] the test system is NCI/ADR-RES ovarian.
Assay [8] concerns RPMI-8226 leukemia.
The test system of assay [9] is HL-60(TB) leukemia.
In assay [10] the test system is UACC-62 melanoma.

As for `CC1=NN=C(C)C1N=Nc1ccc2nc(C)[nH]c2c1`, the TGI in assay [1] was > 100 µM; in assay [2], 77.5 µM; in assay [3] it was > 100 µM; in assay [4] it was 29.7 µM; in assay [5] it was > 100 µM; in assay [6], > 100 µM. Besides, the TGI in [7] is > 100 µM; in [8], > 100 µM; in assay [9] it was > 100 µM; in assay [10], > 79.8 µM.

As for `O=C1CN(c2ccccc2)Cc2nc(Cl)ccc2N1`, the TGI in [1], in [2], in assay [3], in [4], in assay [5] and in [6] was > 100 µM in each case. For the same molecule, the TGI in assay [7], in assay [8], in [9] and in [10] was > 100 µM in each case.

On to `CCOC(=O)c1c[nH]c(C(=O)OCC)c1-c1cccn1-c1ccccc1`, for which the TGI in assay [1] was 69.2 µM; in assay [2], 77.4 µM; in assay [3] it was 41.9 µM; in [4], 51.9 µM; in assay [5] it was > 100 µM; in [6], > 100 µM. The TGI in [7] stood at 76 µM; in assay [8], 52.6 µM; in assay [9], 54.4 µM; in assay [10], 38.9 µM.

As for `CSc1ncnc2c1cnn2Cc1cnnn1COCC(O)CO` (configuration not stated), the TGI in assay [1], in assay [2], in assay [3], in [4], in assay [5] and in assay [6] was > 100 µM each time. In addition, the TGI in assay [7], in [8], in [9] and in assay [10] was > 100 µM each time.

Regarding `O=C1NC2NC3NC(=O)NC3NC2N1` (configuration not stated), the TGI in [1], in [2], in assay [3], in assay [4], in assay [5] and in [7] was > 100 µM in each case. Moreover, the TGI in assay [8], in [9] and in assay [10] was > 100 µM in each case.

On to `Cc1cccc(C2ON=C(c3ccccc3)N2C23CC4CC(CC(C4)C2)C3)c1` (configuration not stated), for which the TGI in assay [1], in assay [3], in assay [4], in [5], in [6] and in assay [7] was > 10 µM in each case. Besides, the TGI in assay [8], in [9] and in [10] was > 10 µM throughout.

Regarding `CS(=O)(=O)N1CC(CCl)c2ccc(NO)cc21` (configuration not stated), the TGI is 32.6 µM in [1]; 16.5 µM in assay [2]; 34.3 µM in assay [3]; 29 µM in assay [4]; > 86.4 µM in assay [5]; 51.1 µM in assay [6]. Moreover, the TGI in assay [7] was found to be 22.9 µM; in assay [8] it was 16 µM; in assay [9] it was 20 µM; in [10] it was 26.5 µM.

For the molecule `O=C/C(=C1/C=Cc2cc([N+](=O)[O-])ccc2S1)c1ccccc1`, the TGI in assay [1], in assay [2], in assay [3], in assay [4], in [5] and in assay [6] was > 100 µM throughout. Besides, the TGI in [7], in assay [8] and in assay [9] was > 100 µM in each case.

Consider `CC(C)[C@@H]1CC[C@@H](C)C[C@H]1OC(=O)c1c2n(c3ccccc13)C[C@H]1OC(C)(C)O[C@@H]21`, for which the TGI in assay [1] was > 100 µM; in assay [2], > 100 µM; in assay [3] it was > 100 µM; in assay [4] it was > 100 µM; in assay [6], 60.7 µM; in assay [7] it was > 100 µM. Moreover, the TGI in assay [8], in [9] and in assay [10] was > 100 µM throughout.

Regarding `O=C1N=C2SC=C(NC(=S)Nc3ccccc3)N2NC12c1ccccc1-c1ccccc12`, the TGI in assay [1], in assay [2], in assay [3], in assay [4], in assay [5] and in [6] was > 10 µM in each case. Besides, the TGI in assay [7], in assay [8], in assay [9] and in assay [10] was > 10 µM in each case.

`CCC(NC(C)c1ccccc1)C(=O)c1ccc(OCc2ccccc2)c(OCc2ccccc2)c1` (configuration not stated): the TGI in assay [1], in assay [2], in [3], in assay [4], in assay [5] and in [6] was > 100 µM throughout. For the same molecule, the TGI in assay [7], in assay [8], in [9] and in assay [10] was > 100 µM each time.

With `CCOC(=O)N/N=C(/N)c1cccc(Br)c1`, the TGI in assay [1], in assay [2], in [3], in assay [4], in assay [5] and in assay [6] was > 100 µM each time. Moreover, the TGI in [7], in assay [9] and in [10] was > 100 µM in each case.

On to `Nc1nc(NNc2cccc(F)c2)cc(=O)[nH]1`, for which the TGI in assay [1], in assay [2], in assay [3], in assay [4], in assay [5] and in assay [6] was > 100 µM throughout. For the same molecule, the figures for the TGI in assay [7], in assay [8] and in assay [9] were > 100 µM, > 100 µM and 59.3 µM, respectively.

For the molecule `CC(C)(C)OC(=O)NC1CCCC1C(=O)C1=CCCC1` (configuration not stated), the TGI in [1], in assay [3], in assay [4], in [5], in assay [7] and in assay [8] was > 100 µM each time. The TGI in [9] and in assay [10] was > 100 µM in each case.

Consider `CC(C)Oc1c(C2(c3ccccc3)SCCCS2)c(=O)c1=O`, for which the TGI in assay [1], in assay [2], in assay [3], in assay [4], in assay [5] and in assay [6] was > 100 µM throughout. The TGI in assay [7], in assay [9] and in assay [10] was > 100 µM each time.

For the molecule `COc1ccc(-n2c(CCC(=O)O)nc3c2C(=O)c2ccccc2C3=O)cc1`, the TGI in [1], in [2], in assay [3], in assay [5], in [6] and in [7] was > 100 µM in each case. Moreover, the TGI in assay [8], in [9] and in assay [10] was > 100 µM in each case.

On to `CC1=NN(c2nc(N)nc(NS(=O)(=O)c3cc(C)c(Cl)cc3S)n2)C(C)(C)C1`, for which the TGI in [1], in assay [2], in assay [3], in assay [4], in [5] and in assay [6] was > 10 µM throughout. The TGI in assay [7], in assay [8] and in assay [9] was > 10 µM each time.

As to `COc1ccc(C2=Nc3c(nc(OC)[nH]c3=O)NC(c3ccccc3)C2)cc1` (configuration not stated), the TGI was 62.6 µM in assay [1]; > 100 µM in assay [2]; > 100 µM in [3]; > 100 µM in assay [4]; > 100 µM in [5]; > 100 µM in [7]. The TGI in assay [8] is 91.5 µM; in assay [9], 56.9 µM; in [10], > 100 µM.

As for `CC(C)C1CNC(=O)C2(C=NC(C(C)C)CNC(=O)C3(C=N1)CCCO3)CCCO2` (configuration not stated), the TGI in assay [1], in assay [3], in assay [4], in [5], in assay [6] and in assay [7] was > 10 µM in each case. Further, the TGI in assay [8], in assay [9] and in assay [10] was > 10 µM each time.

`C=CCCC1(O)C(O)C(CO)O[C@H](O[C@@]2(CO)OC(CO)C(O)C2O)C1O` (some centres not stated): the TGI in assay [1], in [3], in [4], in [5], in [6] and in assay [7] was > 100 µM throughout. Moreover, the TGI in assay [8] and in assay [9] was > 100 µM in each case.

In the case of `O[C@]12C=C(c3nccc4c3[nH]c3ccccc34)[C@@H]3CCN(CCCC/C=C\CC1)C[C@@]31CC3/C=C\CCCCN3[C@H]12` (some centres not stated), the TGI in assay [1] stood at 2.84 µM; in assay [2], 0.463 µM; in assay [3] it was 0.896 µM; in [4], 2.28 µM; in [5], 16.2 µM; in [6], 1.95 µM. Also, the TGI was 4.16 µM in assay [7], 1.08 µM in assay [9] and 0.159 µM in [10].

As for `Cn1c(=O)c2[nH]c(N=O)nc2n(C)c1=O`, the TGI in [1], in assay [2], in [3], in assay [4], in assay [6] and in assay [7] was > 100 µM in each case. For the same molecule, the TGI in assay [8], in assay [9] and in assay [10] was > 100 µM in each case.

Turning to `FC(F)(F)c1ccc(C2ON=C(c3ccccc3)N2C23CC4CC(CC(C4)C2)C3)cc1` (configuration not stated), the TGI in assay [1], in [3], in assay [4], in [5], in assay [6] and in assay [7] was > 10 µM each time. The TGI in assay [8], in assay [9] and in [10] was > 10 µM each time.

As for `C1CNOCCCONCCCNOCCCONC1`, the TGI in assay [1] was > 100 µM; in assay [2], > 100 µM; in assay [3], > 100 µM; in [4] it was > 100 µM; in [5], > 100 µM; in assay [6], 84.5 µM. Further, the TGI in assay [7], in assay [9] and in [10] was > 100 µM in each case.

As for `O=C(O)c1nc2ccccc2nc1Nc1ccc(Cl)c(Cl)c1`, the TGI in assay [1] is > 100 µM; in [2], 33.6 µM; in [3] it was 82 µM; in assay [4] it was > 100 µM; in [5], > 100 µM; in assay [6], > 100 µM. For the same molecule, the TGI in assay [7], in assay [8] and in [9] was > 100 µM throughout.

As to `Cc1ccc(S(=O)c2cccs2)cc1` (configuration not stated), the TGI in assay [1], in [2], in assay [3], in [5], in [6] and in [7] was > 100 µM in each case. In addition, the TGI in assay [8] and in assay [9] was > 100 µM throughout.

For the molecule `CO/C(N)=C(\C#N)N=Cc1ccc2ccccc2c1`, the TGI in assay [1], in assay [2], in assay [4], in [6], in [7] and in assay [8] was > 100 µM in each case. Further, the TGI is 15.6 µM in assay [9] and > 100 µM in assay [10].

Regarding `COC(=O)c1ccc2c(c1)CC1(C2)Cc2cc3c(cc2C1)CCC3`, the TGI in assay [2], in assay [3], in assay [4], in assay [5], in assay [6] and in assay [7] was > 100 µM throughout. Besides, the TGI in [8] and in assay [9] was > 100 µM throughout.

Turning to `COc1ccc(Nc2nc3ccccc3n3cccc23)cc1OC`, the TGI is 39.2 µM in [2]; 30.7 µM in [3]; 52.3 µM in assay [4]; > 100 µM in assay [5]; 39 µM in assay [6]; 56.1 µM in assay [7]. Moreover, the TGI turned out to be 54.3 µM in [8], 9.51 µM in assay [9] and 27.4 µM in [10].

As for `CNC(=O)c1n[nH]n(C2CCCCC2)c1=S`, the TGI in assay [1], in assay [2], in assay [3], in assay [4], in assay [5] and in assay [7] was > 100 µM each time. In addition, the TGI in [8], in assay [9] and in assay [10] was > 100 µM in each case.
